# PMC6435784, “Gut Microbiota-Based Pharmacokinetics and the Antidepressant Mechanism of Paeoniflorin” (Frontiers in Pharmacology, 2019)
# Legend:
# carboxylesterase = experiment: Effect of BNPP inhibition on the transformation of paeoniflorin in intestinal culture system; type: cell-based, rat gut microbiota; conditions: 24 h, 1 mg/mL paeoniflorin
# Procedure: The colon contents of six rats were pooled, and 5 g of the sample was transferred to a ziplock bag and then mixed thoroughly with anaerobic medium (100 mL). After mixing completely, the cultures were stored at 37°C and preincubated for 1 h. Then, 10 μL of paeoniflorin (100 mg/mL) was added to fresh rat intestinal microbial culture (990 μL) under anaerobic conditions of N2, with a final concentration of 1 mg/mL of paeoniflorin in the culture system ([Hattori et al., 1988]). The inactivated bacteria solution was used as a negative control. Cultures were incubated at 37°C for 0, 2, 6, 12, and 24 h, respectively. After terminated the reaction with 3 volumes of acetonitrile, samples were vortexed for 30 s and then centrifuged at 16,162 g for 5 min. A total of 100 μL of the supernatant were transferred to a centrifuge tube, centrifuged at 16,162 g for 5 min and filtered through a 0.45 μm microporous membrane. Finally, 5 μL of the filtrate solution was collected for analysis.
# Consistent with the above steps, the carboxylesterase inhibitor BNPP (0.1, 1, 3, and 10 mM) was added to the culture system at different concentrations with a final concentration of 1 mg/mL paeoniflorin. Then, the cultures were incubated at 37°C for 0, 2, 6, 12, and 24 h. The intestinal culture system without BNPP was used as a control group.
# [1] = Pharmacokinetics of paeoniflorin in pseudo-germ-free (PGF) rats; type: in vivo; conditions: SD, rat, in vivo, oral paeoniflorin 20 mg/kg, plasma analyte = labelled substance; for AUC(0-t) / Cmax: po, 20 mg/kg
# Procedure: Chromatography separation was performed using an XSS T3 column (3.5 μm, 2.1 mm × 100 mm, Waters, Milford, MA, United States) with the column temperature maintained at 40°C at a flow rate of 0.4 mL/min. […] The gradient was as follows: 25% eluent B for 2 min; 25–85% B from 2 to 4 min; 85–25% B from 4 to 5 min and held at 25% from 5 to 7 min. The autosampler temperature was set to 4°C. Mass spectrometry was carried out using multiple reaction monitoring mode (MRM). […] The nebulizing gas flow rate was 2.8 L/min, the drying gas flow rate was 10 L/min, and the heating gas flow rate was 10 L/min. […] The remaining fourteen SD rats were orally administered saline equivalently. Two days after administration, pharmacokinetic experiments were performed. […] Plasma samples were immediately stored at 4°C until analysis. Statistical analyses were conducted using two-way ANOVA and Student’s t-test with GraphPad Prism Version 5 (GraphPad Software, La Jolla, CA, United States). The data are expressed as the means ± standard deviation. […] DAS 3.0 was used to calculate the plasma pharmacokinetic parameters.
# [2] = Excretion of paeoniflorin in rats (urine, feces, bile); type: in vivo, rat; conditions: normal rats, paeoniflorin 20 mg/kg, excreted form = labelled substance, n = 6
# [3] = as above; type: in vivo, rat; conditions: normal rats, oral paeoniflorin 20 mg/kg, excreted form = labelled substance, n = 6
# Procedure: Then, urine samples and feces samples were collected at 0, 6, 12, 24, 48, 72, and 96 h.
# [4] = Brain distribution of paeoniflorin and benzoic acid in rats; type: in vivo, rat; conditions: at 2 h after oral administration of paeoniflorin 20 mg/kg
# [5] = Pharmacokinetics of paeoniflorin in normal SD rats (plasma, LC-MS/MS); type: in vivo, rat; conditions: normal rats, oral paeoniflorin 20 mg/kg, plasma analyte = labelled substance
# Procedure: Chromatography separation was performed using an XSS T3 column (3.5 μm, 2.1 mm × 100 mm, Waters, Milford, MA, United States) with the column temperature maintained at 40°C at a flow rate of 0.4 mL/min. […] The gradient was as follows: 25% eluent B for 2 min; 25–85% B from 2 to 4 min; 85–25% B from 4 to 5 min and held at 25% from 5 to 7 min. The autosampler temperature was set to 4°C. Mass spectrometry was carried out using multiple reaction monitoring mode (MRM). […] The nebulizing gas flow rate was 2.8 L/min, the drying gas flow rate was 10 L/min, and the heating gas flow rate was 10 L/min. […] Plasma samples were immediately stored at 4°C until analysis. The method validation assays were carried out in terms of specificity, linearity, sensitivity, accuracy, precisions, recovery, matrix effect and stability. […] Statistical analyses were conducted using two-way ANOVA and Student’s t-test with GraphPad Prism Version 5 (GraphPad Software, La Jolla, CA, United States). The data are expressed as the means ± standard deviation. […] DAS 3.0 was used to calculate the plasma pharmacokinetic parameters.
# depressed rats = experiment: Chronic unpredictable stress depression model, sucrose preference test; type: in vivo, rat; conditions: 10 mg/kg, after 2 weeks of drug treatment, compared with model group, n = 8
# Procedure: Forty rats were randomly divided into the following groups (n = 8): the normal control group, the model control group, the fluoxetine group (10 mg/kg), the paeoniflorin low-dose group (10 mg/kg), and the paeoniflorin high-dose group (20 mg/kg). Except for the blank control group, the groups were randomly exposed to two stressors, including behavioral constraints, ice water swimming, electric shock, cold stimulation, clip tail, wet bedding, light/dark reversed, shaking, foods and water deprivation, continuously for 8 weeks to establish a chronic unpredictable stress model. The sucrose preference test was performed at 0 and 14 days after administration.
# [6] = PGF rats (antibiotic pretreated)
structure (smiles),measurement,setting,value
"O=[N+]([O-])c1ccc(OP(=O)(O)Oc2ccc([N+](=O)[O-])cc2)cc1 [BNPP, bis-p-nitrophenyl phosphate]",inhibition rate of the conversion of paeoniflorin to benzoic acid,carboxylesterase; BNPP 0.1 mM,8.2%
same,inhibition rate of the conversion of paeoniflorin to benzoic acid,carboxylesterase; BNPP 1 mM,46.8%
same,inhibition rate of the conversion of paeoniflorin to benzoic acid,carboxylesterase; BNPP 3 mM,63.7%
same,inhibition rate of the conversion of paeoniflorin to benzoic acid,carboxylesterase; BNPP 10 mM,74.9%
"O=C(O)c1ccccc1 [Benzoic acid, benzoic acid]",AUC(0-t),"[1]; PGF rats (antibiotic pretreated), read-out: AUC (0-t)",94.8 ± 19.8 ng·h/mL
same,Cmax,"[1]; PGF rats (antibiotic pretreated), read-out: Cmax",27.6 ± 2.63 ng/mL
same,AUC(0-t),"[1]; PGF rats, Figures 3B, 3C, read-out: AUC(0-t) (unit inferred)",68.5 ng·h/mL
same,Cmax,"[1]; PGF rats, Figures 3B, 3C, read-out: Cmax (unit inferred)",25.4 ng/mL
same,AUC(0-inf),[1]; [6],97.2 ± 20.2 ng·h/mL
same,Tmax,[1]; [6],35.8 ± 14.3 min
same,cumulative excretion rate in bile for 60 h,[2],No benzoic acid was detected
same,96-h cumulative excretion in feces,[3],0.15%
same,96-h cumulative excretion in urine,[3],42.13%
same,detection in SD rat brains,[4],considerable number
same,AUC(0-t),"[5]; SD, rat, in vivo, po, 20 mg/kg, Figures 2C, 3B, 3C, read-out: AUC(0-t) (unit inferred)",151 ng·h/mL
same,Cmax,"[5]; SD, rat, in vivo, po, 20 mg/kg, Figures 2C, 3B, 3C, read-out: Cmax (unit inferred)",55.6 ng/mL
same,AUC(0-t),"[5]; SD, rat, in vivo, po, 20 mg/kg, n = 6, read-out: AUC (0-t)",151 ng·h/mL
same,Cmax,"[5]; SD, rat, in vivo, po, 20 mg/kg, n = 6, read-out: Cmax",55.6 ± 12.1 ng/mL
same,Cmax,"[5]; SD, rat, in vivo, po, 20 mg/kg, read-out: Cmax",55.6 ng/mL
same,AUC(0-inf),"[5]; SD, rat, in vivo, n = 6",162 ± 40.1 ng·h/mL
same,Tmax,"[5]; SD, rat, in vivo, n = 6",47.5 ± 11.3 min
same,AUC(0-t),[5]; n = 6,151.24 ± 29.59 ng·h/mL
"CNCCC(Oc1ccc(C(F)(F)F)cc1)c1ccccc1 (centres unmarked) [fluoxetine, reference compound]",sucrose preference value,depressed rats,significantly higher than that of the model control group
